Earlier results as cited in US20240082217A1, “PROCESS FOR OBTAINING A PURIFIED PS[…] SOLUTION” (PSILO SCIENTIFIC LTD, priority 2020, published 2024).

Conditions: stated as a property of the alkaloid, freebase form; no measurement described

With `CN(C)CCc1c[nH]c2cccc(O)c12` [psilocin] as the compound, how does the “isoelectric point (pH)” value read?
The value was 8.47±0.25 pH.
